Structures can show the parent of a compound that is named as a salt. Where two headings read alike, the source gives them in different places.
Test system: 3T3 L1 fibroblasts
Test: Glucose transport activity assay (14C-2-deoxy-D-glucose uptake)
Format: cell-based
Protocol: Glucose Transport Activity Assay.
Stimulation of the insulin receptor leads to the transport of glucose from the blood into cells, thus modulating blood glucose levels. 3T3 L1 fibroblasts (ATCC) were grown in Dulbecco's modified Eagle's medium (DMEM) with 10% fetal bovine serum (FBS). The cells were plated at a density of 3×10^4 cells/well in 24-well plates. Two days after confluence was reached, the cells were treated for 3 days with 0.5 mM isobutylmethylxanthine (IBMX), 1 μM dexamethasone, and 1.7 μM insulin. The cells were then transferred to DMEM with 10% FBS and supplemented with 1.7μM insulin for 2 more days. The cells were maintained in DMEM with 10% FBS for an additional 4 days. Finally the cells were serum-starved overnight in 0.1% bovine serum albumin (BSA) in DMEM.
The following day, the medium was replaced with 150 mM NaCl, 1.7 mM KCl, 0.9 mM CaCl2, K2HPO4 (pH 7.4) to which were added either the experimental compounds or their vehicle (DMSO). Insulin or its vehicle (0.01% BSA) was diluted in the assay buffer (containing test compound or vehicle, respectively) to final concentration of […]. After incubation for 30 min at 37° C., 5 μCi/ml ^14C-2-deoxy-D-glucose was added, and the incubation was continued for additional 30 min at 37° C. The cells were then washed 3 times with ice-cold PBS/20 mM glucose and lysed in 250 μl of lysis buffer (50 mM HEPES pH 7.6, 1% Triton X-100) for 30 min at room temperature. Radioactivity in the lysate was quantified by scintillation counting.
Once ^14C-2-deoxy-D-glucose is transported into the cell, it is not released. Glucose transport is, therefore, proportional to the amount of radioactivity in the lysate. The concentration of compound necessary to produce an increase in glucose transport to greater than 150% of the vehicle control (generally representing the sum of the standard deviation of the vehicle control plus the largest standard deviation of a test sample) was recorded as the EC (effective concentration). Shown in FIG. 3 is glucose uptake by cells at various concentrations when treated with Compound 13 and Compound 15.

[1] = Mus musculus, EC (effective concentration) for increase in glucose transport, 14C-2-deoxy-D-glucose, 3T3 L1 cells, read-out: Concentration (μM) to reach >150% activity of vehicle control
[2] = EC (effective concentration) for increase in glucose transport, 14C-2-deoxy-D-glucose, 3T3 L1 cells, read-out: Concentration (μM) to reach >150% activity of vehicle control

SMILES	EC (150% of vehicle control) [1] [µM]	EC (150% of vehicle control) [2] [µM]	further results
O=C(Nc1ccc2ccc(S(=O)(=O)Nc3ccc(Cl)c(CO)c3)cc2c1)Nc1ccc2ccc(S(=O)(=O)Nc3ccc(Cl)c(CO)c3)cc2c1 [Compound 85, N-[7-({[4-chloro-3-(hydroxymethyl)phenyl]amino}sulfonyl)(2-naphthyl)]{[7-({[4-chloro-3-(hydroxymethyl)phenyl]amino}sulfonyl)(2-naphthyl)]amino}carboxamide]	32	–	–
O=C(Nc1ccc2c(O)cc(S(=O)(=O)Nc3cccc(C(F)(F)F)c3)cc2c1)Nc1ccc2c(O)cc(S(=O)(=O)Nc3cccc(C(F)(F)F)c3)cc2c1 [Compound 88, N-[5-hydroxy-7-({[3-(trifluoromethyl)phenyl]amino}sulfonyl)(2-naphthyl)]{[5-hydroxy-7-({[3-(trifluoromethyl)phenyl]amino}sulfonyl)(2-naphthyl)]amino}carboxamide]	> 32	–	–
O=C(Nc1ccc2ccc(S(=O)(=O)O)cc2c1)Nc1ccc2ccc(S(=O)(=O)Nc3ccc(Cl)c(S(=O)(=O)O)c3)cc2c1 [Compound 90, 7-{[(7-{[(4-chloro-3-sulfophenyl)amino]sulfonyl}-2-naphthyl)amino]carbonylamino}naphthalene-2-sulfonic acid]	3.2	–	–
O=C(Nc1ccc2ccc(S(=O)(=O)Nc3ccc(Cl)c(S(=O)(=O)O)c3)cc2c1)Nc1ccc2ccc(S(=O)(=O)Nc3ccc(Cl)c(S(=O)(=O)O)c3)cc2c1 [Compound 91, 2-chloro-5-{[(7-{[(7-{[(4-chloro-3-sulfophenyl)amino]sulfonyl}(2-naphthyl))amino]carbonylamino}(2-naphthyl))sulfonyl]amino}benzenesulfonic acid]	3.2	–	–
CN(c1cccc(S(=O)(=O)O)c1)S(=O)(=O)c1ccc2ccc(NC(=O)Nc3ccc4ccc(S(=O)(=O)N(C)c5cccc(S(=O)(=O)O)c5)cc4c3)cc2c1 [Compound 103, 3-{methyl[(7-{[(7-{[methyl(3-sulfophenyl)amino]sulfonyl}(2-naphthyl))amino]-carbonylamino}-(2-naphthyl))sulfonyl]amino}benzenesulfonic acid dipotassium salt]	–	–	EC (150% of vehicle control) (Mus musculus, 3T3-L1, read-out: Concentration (μM) to reach >150% activity of vehicle control): 3.2 µM
O=C(Nc1ccc2ccc(S(=O)(=O)Nc3cccc(S(=O)(=O)O)c3)cc2c1)Nc1ccc2ccc(S(=O)(=O)Nc3cccc(S(=O)(=O)O)c3)cc2c1 [Compound 114, 3-{[(7-{[N-(7-{[(3-sulfophenyl)amino]sulfonyl}-2-naphthyl)carbamoyl]amino}-2-naphthyl)sulfonyl]amino}benzenesulfonic acid disodium salt]	3.2	–	–
O=C(Nc1ccc2ccc(C(=O)Nc3cccc(C(=O)O)c3)cc2c1)Nc1ccc2ccc(C(=O)Nc3cccc(C(=O)O)c3)cc2c1 [Compound 116, 3-({7-[({7-[N-(3-carboxyphenyl)carbamoyl]-2-naphthyl}amino)carbonylamino]-2-naphthyl}carbonylamino)benzoic acid]	> 32	–	–
O=C(Nc1ccc2ccc(NS(=O)(=O)c3cccc(C(=O)O)c3)cc2c1)Nc1ccc2ccc(NS(=O)(=O)c3cccc(C(=O)O)c3)cc2c1 [Compound 129, 3-{[(7-{[N-(7-{[(3-carboxyphenyl)sulfonyl]amino}-2-naphthyl)carbamoyl]amino}-2-naphthyl)amino]sulfonyl}benzoic acid]	32	–	–
COC(=O)c1cc(NS(=O)(=O)c2ccc3ccc(NC(=S)Nc4ccc5ccc(S(=O)(=O)Nc6ccc(Cl)c(C(=O)OC)c6)cc5c4)cc3c2)ccc1Cl [Compound 157, methyl 2-chloro-5-[({7-[({[7-({[4-chloro-3-(methoxycarbonyl)phenyl]amino}sulfonyl)(2-naphthyl)]amino}thioxomethyl)amino](2-naphthyl)}sulfonyl)amino]benzoate]	> 32	–	–
COC(=O)c1cc(NS(=O)(=O)c2ccc3ccc(/N=C(/Nc4ccc5ccc(S(=O)(=O)Nc6ccc(Cl)c(C(=O)OC)c6)cc5c4)SC)cc3c2)ccc1Cl [Compound 158, methyl 5-({[7-((1Z)-1-aza-2-{[7-({[4-chloro-3-(methoxycarbonyl)phenyl]amino}sulfonyl)(2-naphthyl)]amino}-2-methylthiovinyl)(2-naphthyl)]sulfonyl}amino)-2-chlorobenzoate]	> 32	–	–
CN=C(Nc1ccc2ccc(NS(=O)(=O)c3ccc(Cl)c(C(=O)OC)c3)cc2c1)Nc1ccc2ccc(NS(=O)(=O)c3ccc(Cl)c(C(=O)OC)c3)cc2c1 [Compound 161, methyl 5-[({7-[((1E)-2-aza-1-{[7-({[4-chloro-3-(methoxycarbonyl)phenyl]sulfonyl}amino)(2-naphthyl)]amino}prop-1-enyl)amino](2-naphthyl)}amino)sulfonyl]-2-chlorobenzoate]	–	>32	–
CN=C(Nc1ccc2ccc(NS(=O)(=O)c3ccc(Cl)c(C(=O)O)c3)cc2c1)Nc1ccc2ccc(NS(=O)(=O)c3ccc(Cl)c(C(=O)O)c3)cc2c1 [Compound 162, 5-({[7-({(1E)-2-aza-1-[(7-{[(3-carboxy-4-chlorophenyl)sulfonyl]amino}(2-naphthyl))amino]prop-1-enyl}amino)(2-naphthyl)]amino}sulfonyl)-2-chlorobenzoic acid]	–	>32	–
COC(=O)c1cc(S(=O)(=O)Nc2ccc3ccc(NC(=NC#N)Nc4ccc5ccc(NS(=O)(=O)c6ccc(Cl)c(C(=O)OC)c6)cc5c4)cc3c2)ccc1Cl [Compound 165, methyl 5-[({7-[((1E)-2-aza-1-{[7-({[4-chloro-3-(methoxycarbonyl)phenyl]sulfonyl}amino)(2-naphthyl)]amino}-2-cyanovinyl)amino](2-naphthyl)}amino)sulfonyl]-2-chlorobenzoate]	–	3.2	–
N#CN=C(Nc1ccc2ccc(NS(=O)(=O)c3ccc(Cl)c(C(=O)O)c3)cc2c1)Nc1ccc2ccc(NS(=O)(=O)c3ccc(Cl)c(C(=O)O)c3)cc2c1 [Compound 166, 5-({[7-({(1E)-2-aza-1-[(7-{[(3-carboxy-4-chlorophenyl)sulfonyl]amino}(2-naphthyl))amino]-2-cyanovinyl}amino)(2-naphthyl)]amino}sulfonyl)-2-chlorobenzoic acid]	–	3.2	–
C=CCN=C(Nc1ccc2ccc(NS(=O)(=O)c3ccc(Cl)c(C(=O)OC)c3)cc2c1)Nc1ccc2ccc(NS(=O)(=O)c3ccc(Cl)c(C(=O)OC)c3)cc2c1 [Compound 167, methyl 5-[({7-[((1E)-2-aza-1-{[7-({[4-chloro-3-(methoxycarbonyl)phenyl]sulfonyl}amino)(2-naphthyl)]amino}penta-1,4-dienyl)amino](2-naphthyl)}amino)sulfonyl]-2-chlorobenzoate]	–	>32	–
C=CCN=C(Nc1ccc2ccc(NS(=O)(=O)c3ccc(Cl)c(C(=O)O)c3)cc2c1)Nc1ccc2ccc(NS(=O)(=O)c3ccc(Cl)c(C(=O)O)c3)cc2c1 [Compound 168, 5-({[7-({(1E)-2-aza-1-[(7-{[(3-carboxy-4-chlorophenyl)sulfonyl]amino}(2-naphthyl))amino]penta-1,4-dienyl}amino)(2-naphthyl)]amino}sulfonyl)-2-chlorobenzoic acid]	–	>32	–
O=C(Nc1ccc2cc(S(=O)(=O)Nc3cccc(S(=O)(=O)O)c3)ccc2c1)Nc1ccc2cc(S(=O)(=O)Nc3cccc(S(=O)(=O)O)c3)ccc2c1 [Compound 169, 3-{[(6-{[(6-{[(3-sulfophenyl)amino]sulfonyl}-2-naphthyl)amino]carbonylamino}-2-naphthyl)sulfonyl]amino}benzenesulfonic acid]	3.2	–	–
O=C(Nc1ccc2cc(S(=O)(=O)Nc3cccc(C(=O)O)c3)ccc2c1)Nc1ccc2cc(S(=O)(=O)Nc3cccc(C(=O)O)c3)ccc2c1 [Compound 171, 3-{[(6-{[(6-{[(3-carboxyphenyl)amino]sulfonyl}-2-naphthyl)amino]carbonylamino}-2-naphthyl)sulfonyl]amino}benzoic acid]	3.2	–	–
O=C(Nc1ccc2cc(S(=O)(=O)Nc3ccc(C(=O)O)cc3)ccc2c1)Nc1ccc2cc(S(=O)(=O)Nc3ccc(C(=O)O)cc3)ccc2c1 [Compound 173, 4-{[(6-{[(6-{[(4-carboxyphenyl)amino]sulfonyl}-2-naphthyl)amino]carbonylamino}-2-naphthyl)sulfonyl]amino}benzoic acid]	3.2	–	–
O=C(Nc1ccc2cc(S(=O)(=O)Nc3cc(C(=O)O)cc(C(=O)O)c3)ccc2c1)Nc1ccc2cc(S(=O)(=O)Nc3cc(C(=O)O)cc(C(=O)O)c3)ccc2c1 [Compound 175, 5-{[(6-{[(6-{[(3,5-dicarboxyphenyl)amino]sulfonyl}-2-naphthyl)amino]carbonylamino}-2-naphthyl)sulfonyl]amino}benzene-1,3-dicarboxylic acid]	3.2	–	–
